Measured values as given in ChEMBL document CHEMBL1909046, “DrugMatrix in vitro pharmacology data”.

Experiments:
[1] = target: T1, Alpha-2A adrenergic receptor (Homo sapiens, UniProt P08913); assay type: cell membranes, Sf9, Membrane; note: in other assays of this panel Not Active means under 50% inhibition at 10 µM
T1 sequence (P08913 whole entry): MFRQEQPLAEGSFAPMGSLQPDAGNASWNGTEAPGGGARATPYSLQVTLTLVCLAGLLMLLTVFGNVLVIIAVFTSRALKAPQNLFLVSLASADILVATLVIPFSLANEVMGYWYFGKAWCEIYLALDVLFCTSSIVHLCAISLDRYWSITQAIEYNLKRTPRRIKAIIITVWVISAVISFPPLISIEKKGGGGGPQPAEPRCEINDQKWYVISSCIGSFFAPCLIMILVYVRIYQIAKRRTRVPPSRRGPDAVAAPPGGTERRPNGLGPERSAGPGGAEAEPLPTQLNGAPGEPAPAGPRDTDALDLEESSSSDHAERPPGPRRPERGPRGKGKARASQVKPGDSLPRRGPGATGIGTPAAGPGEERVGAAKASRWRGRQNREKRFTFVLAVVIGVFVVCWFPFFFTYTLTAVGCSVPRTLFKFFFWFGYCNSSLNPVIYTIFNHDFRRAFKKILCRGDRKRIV

[2] = target: Aldo-keto reductase family 1 member B1 (Rattus norvegicus, UniProt P07943); test: biochemical; assay type: tissue-based, Lens of camera-type eye;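 note: inhibition of aldose reductase enzyme activity, measured with DL-glyceraldehyde as the substrate; in other assays of this panel Not Active means under 50% inhibition at 10 µM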
[3] = DRUGMATRIX: Sigma2 radioligand binding (ligand: [3H] Ifenprodil); assay type: cell membranes, Rattus norvegicus, Wistar, Brain, Membrane; conditions: Not Active = under 50% inhibition at 10 µM
[4] = target: Platelet-activating factor receptor (Homo sapiens, UniProt P25105); assay type: tissue-based; note: in other assays of this panel Not Active means under 50% inhibition at 10 µM
[5] = target: Receptor tyrosine-protein kinase erbB-2 (Homo sapiens, UniProt P04626); test: biochemical; assay type: cell-based, Insect cells; conditions: insect cells;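 note: inhibition of HER2 kinase enzyme activity, measured with Poly(Glu:Tyr) as the phosphorylation substrate; in other assays of this panel Not Active means under 50% inhibition at 10 µM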
[6] = target: T2, Receptor-type tyrosine-protein phosphatase C (Homo sapiens, UniProt P08575); set-up: species or system Escherichia coli
T2 sequence (P08575 whole entry): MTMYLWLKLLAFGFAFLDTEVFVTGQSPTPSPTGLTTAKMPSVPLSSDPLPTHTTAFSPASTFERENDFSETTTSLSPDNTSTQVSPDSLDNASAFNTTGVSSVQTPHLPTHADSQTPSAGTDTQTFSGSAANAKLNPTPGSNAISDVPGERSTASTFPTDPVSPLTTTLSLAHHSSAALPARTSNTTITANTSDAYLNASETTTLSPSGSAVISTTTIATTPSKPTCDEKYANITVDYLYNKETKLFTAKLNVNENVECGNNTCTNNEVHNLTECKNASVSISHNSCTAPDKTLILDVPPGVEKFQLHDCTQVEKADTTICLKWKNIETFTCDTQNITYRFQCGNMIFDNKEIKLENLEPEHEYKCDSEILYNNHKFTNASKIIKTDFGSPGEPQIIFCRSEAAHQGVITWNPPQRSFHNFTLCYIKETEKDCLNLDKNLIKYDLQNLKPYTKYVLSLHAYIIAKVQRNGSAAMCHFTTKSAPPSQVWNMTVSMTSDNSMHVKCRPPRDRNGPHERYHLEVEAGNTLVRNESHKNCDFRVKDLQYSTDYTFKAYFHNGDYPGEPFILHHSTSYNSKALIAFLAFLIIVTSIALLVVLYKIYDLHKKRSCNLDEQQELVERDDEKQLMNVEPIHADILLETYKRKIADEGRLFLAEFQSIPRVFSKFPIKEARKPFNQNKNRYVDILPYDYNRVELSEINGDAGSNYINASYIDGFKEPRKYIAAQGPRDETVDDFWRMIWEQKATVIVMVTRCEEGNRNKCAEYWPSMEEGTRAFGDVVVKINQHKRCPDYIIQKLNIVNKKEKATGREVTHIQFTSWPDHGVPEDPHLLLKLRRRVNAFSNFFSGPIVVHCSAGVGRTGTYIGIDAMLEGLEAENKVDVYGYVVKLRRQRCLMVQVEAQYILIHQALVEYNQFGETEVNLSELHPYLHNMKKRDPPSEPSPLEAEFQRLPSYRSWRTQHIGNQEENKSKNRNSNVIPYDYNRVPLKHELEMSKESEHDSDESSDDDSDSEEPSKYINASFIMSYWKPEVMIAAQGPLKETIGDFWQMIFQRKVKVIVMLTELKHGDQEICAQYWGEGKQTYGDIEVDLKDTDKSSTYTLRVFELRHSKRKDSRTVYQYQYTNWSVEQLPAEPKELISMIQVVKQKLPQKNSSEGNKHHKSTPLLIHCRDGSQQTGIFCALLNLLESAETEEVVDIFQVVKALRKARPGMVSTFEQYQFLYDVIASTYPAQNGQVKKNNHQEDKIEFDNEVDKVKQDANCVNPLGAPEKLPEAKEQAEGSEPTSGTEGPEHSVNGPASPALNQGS

Cytochrome P450 2E1 = Cytochrome P450 2E1 (Homo sapiens, UniProt P05181); conditions: bti-tn-5b1-4; note: in other assays of this panel Not Active means under 50% inhibition at 10 µM
Chain of Cytochrome P450 2E1 (P05181 whole entry): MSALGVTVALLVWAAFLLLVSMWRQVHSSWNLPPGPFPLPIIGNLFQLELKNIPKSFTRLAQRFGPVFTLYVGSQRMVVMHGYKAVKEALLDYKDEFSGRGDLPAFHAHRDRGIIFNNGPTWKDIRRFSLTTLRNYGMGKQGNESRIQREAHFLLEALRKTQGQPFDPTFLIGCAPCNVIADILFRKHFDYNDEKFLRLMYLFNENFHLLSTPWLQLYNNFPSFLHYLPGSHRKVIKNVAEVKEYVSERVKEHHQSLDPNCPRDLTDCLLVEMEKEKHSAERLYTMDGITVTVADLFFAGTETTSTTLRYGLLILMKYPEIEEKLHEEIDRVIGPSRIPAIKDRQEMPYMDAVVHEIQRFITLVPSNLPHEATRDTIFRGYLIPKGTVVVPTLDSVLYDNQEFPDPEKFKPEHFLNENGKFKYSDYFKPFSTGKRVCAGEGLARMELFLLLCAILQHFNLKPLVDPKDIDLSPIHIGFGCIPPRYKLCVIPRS

Chain of Platelet-activating factor receptor (P25105 whole entry): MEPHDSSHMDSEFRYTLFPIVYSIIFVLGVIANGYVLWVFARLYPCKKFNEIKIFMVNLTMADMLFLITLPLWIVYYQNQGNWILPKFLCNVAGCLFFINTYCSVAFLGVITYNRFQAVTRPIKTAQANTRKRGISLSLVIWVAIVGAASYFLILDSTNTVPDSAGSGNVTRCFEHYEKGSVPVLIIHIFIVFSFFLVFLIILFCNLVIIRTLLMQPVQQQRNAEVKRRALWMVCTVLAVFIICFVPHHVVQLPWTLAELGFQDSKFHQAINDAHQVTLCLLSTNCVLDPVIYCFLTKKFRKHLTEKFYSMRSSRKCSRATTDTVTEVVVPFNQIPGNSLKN

Molecule | IC50 ([1]; sf9) | IC50 [2] | IC50 [3] | Ki [3] | IC50 [4] | IC50 [5] | IC50 [6] | IC50 (Cytochrome P450 2E1) | Ki (Cytochrome P450 2E1) | IC50 ([1]; read-out: IC50) [µM] | Ki ([1]; read-out: Ki) [µM] | IC50 ([2]; read-out: IC50) [µM] | Ki ([1]; sf9) | Ki [2] | Ki [4] | Ki [5] | Ki [6]
CS(=O)(=O)Nc1ccc([N+](=O)[O-])cc1Oc1ccccc1 [NIMESULIDE] | Not Active | Not Active | Not Active | Not Active | Not Active | Not Active | Not Active | Not Active | Not Active |  |  |  |  |  |  |  | 
CN1C(=O)CN=C(c2ccccc2)c2cc([N+](=O)[O-])ccc21 [NIMETAZEPAM] | Not Active | Not Active | Not Active | Not Active | Not Active | Not Active | Not Active | Not Active | Not Active |  |  |  |  |  |  |  | 
COc1ccc2c(c1OC)C(=O)O[C@@H]2[C@H]1c2c(cc3c(c2OC)OCO3)CCN1C [NOSCAPINE] | Not Active | Not Active | Not Active | Not Active | Not Active | Not Active | Not Active | Not Active | Not Active |  |  |  |  |  |  |  | 
C[C@@H]1O[C@@H](O[C@H]2C[C@@H](O)[C@]3(CO)[C@H]4[C@H](O)C[C@]5(C)[C@@H](C6=CC(=O)OC6)CC[C@]5(O)[C@@H]4CC[C@]3(O)C2)[C@H](O)[C@H](O)[C@H]1O [OUABAIN] | Not Active | Not Active | Not Active | Not Active | Not Active | Not Active | Not Active | Not Active | Not Active |  |  |  |  |  |  |  | 
NC(=O)N1c2ccccc2CC(=O)c2ccccc21 [OXCARBAZEPINE] | Not Active | Not Active | Not Active | Not Active | Not Active | Not Active | Not Active | Not Active | Not Active |  |  |  |  |  |  |  | 
COc1ccnc(C[S+]([O-])c2nc3ccc(OC(F)F)cc3[nH]2)c1OC (stereo unspecified) [PANTOPRAZOLE] | Not Active | Not Active | Not Active | Not Active | Not Active | Not Active | Not Active | Not Active | Not Active |  |  |  |  |  |  |  | 
N=C(N)c1ccc(OCCCCCOc2ccc(C(=N)N)cc2)cc1 [PENTAMIDINE] |  | Not Active | Not Active | Not Active | Not Active | Not Active | Not Active | Not Active | Not Active | 1.38 | 0.516 |  |  |  |  |  | 
NNCCc1ccccc1 [PHENELZINE] | Not Active | Not Active | Not Active | Not Active | Not Active | Not Active | Not Active | Not Active | Not Active |  |  |  |  |  |  |  | 
CCc1ccc(CCOc2ccc(CC3SC(=O)NC3=O)cc2)nc1 (stereo unspecified) [PIOGLITAZONE] | Not Active |  | Not Active | Not Active | Not Active | Not Active | Not Active | Not Active | Not Active |  |  | 13.2 |  |  |  |  | 
CCCNC(C)C(=O)Nc1ccccc1C (stereo unspecified) [PRILOCAINE] | Not Active | Not Active | Not Active | Not Active | Not Active | Not Active | Not Active | Not Active | Not Active |  |  |  |  |  |  |  | 
CCN(CC)CCNC(=O)c1ccc(N)cc1 [PROCAINAMIDE] | Not Active | Not Active | Not Active | Not Active | Not Active | Not Active | Not Active | Not Active | Not Active |  |  |  |  |  |  |  | 
CCN(CC)CCCC(C)Nc1c2ccc(Cl)cc2nc2ccc(OC)cc12 (stereo unspecified) [QUINACRINE] |  | Not Active | Not Active | Not Active | Not Active | Not Active | Not Active | Not Active | Not Active | 2.28 | 0.855 |  |  |  |  |  | 
C[C@]12C=CC(=O)C=C1CC[C@H]1[C@@H]3C[C@@H](O)[C@](O)(C(=O)CO)[C@@]3(C)C[C@H](O)[C@@]12F [TRIAMCINOLONE] | Not Active | Not Active | Not Active | Not Active | Not Active | Not Active | Not Active | Not Active | Not Active |  |  |  |  |  |  |  | 
CC[C@]1(O)C[C@@H]2CN(CCc3c([nH]c4ccccc34)[C@@](C(=O)OC)(c3cc4c(cc3OC)N(C)[C@H]3[C@@](O)(C(N)=O)[C@H](O)[C@]5(CC)C=CCN6CC[C@]43[C@@H]65)C2)C1 [VINDESINE] | Not Active | Not Active | Not Active | Not Active | Not Active | Not Active | Not Active | Not Active | Not Active |  |  |  |  |  |  |  | 
CCN(C(C)=O)c1cccc(-c2ccnc3c(C#N)cnn23)c1 [ZALEPLON] | Not Active | Not Active | Not Active | Not Active | Not Active | Not Active | Not Active | Not Active | Not Active |  |  |  |  |  |  |  | 
COBALTOUS CHLORIDE | Not Active | Not Active | Not Active | Not Active | Not Active | Not Active | Not Active | Not Active | Not Active |  |  |  | Not Active | Not Active | Not Active | Not Active | Not Active
